Measured values: patent publication US8778975B2, “Helicobacter pylori eradicating agent having inhibitory activity on gastric acid secretion” (Link Geonomics, Inc., priority 2006, dated 2014)
Values after ≈ are worked out from the molar mass of the structure shown. Values joined by “and” are separate entries in the source; they are usually repeats but may differ in a detail not shown here. Equal entries are not always repeated. Where two headings read alike, the source gives them in different places.

What was measured:
[1] = test system: Helicobacter pylori standard strain ATCC 43504; assay: Antibacterial potency test (MIC), Columbia agar medium, Pharmacological Test Example 1; format: cell-based
Method: A test was conducted to see whether there is a difference in the anti-Helicobacter pylori activity depending on the number of carbon atoms of the linear alkyl group for a substituent at the 4-position of the pyridine ring.
For the bacterium Helicobacter pylori, a standard strain ATCC 43504 was used to perform in vitro tests in Columbia agar medium. Each of the specimens was dissolved in a 1% DMSO solution, and the bacteria were cultured at 37° C. and pH 7.0 for 3 days. On the 4th day, the minimum growth inhibitory concentration (MIC, μg/ml) was determined.

[2] = test system: clinically separated clarithromycin-resistant strains and amoxicillin-insensitive strains of Helicobacter pylori; assay: Antibacterial potency (MIC) against clarithromycin-resistant and amoxicillin-insensitive strains, Pharmacological Test Example 3; format: cell-based; settings: Helicobacter pylori, read-out: MIC
Method: A test was conducted on the antibacterial potency of the compounds of the present invention against the clarithromycin-resistant strains and amoxicillin-insensitive strains of the bacterium Helicobacter pylori.
A test was conducted on the antibacterial potency of the compounds of the present invention, using clinically separated clarithromycin-resistant strains and amoxicillin-insensitive strains of the bacterium Helicobacter pylori. For the respective strains, in vitro tests were performed in Columbia agar medium. Each of the specimens was dissolved in a 1% DMSO solution. The bacteria were cultured at 37° C. and pH 7.0 for 3 days, and on the 4th day, the minimum growth inhibitory concentration (MIC, μg/ml) was determined.

[3] = test system: Pseudomonas aeruginosa (ATCC 9027); assay: Antibacterial test (MIC), Gram-negative bacteria; format: cell-based; settings: ATCC9027, read-out: MIC
Excerpt: (§1) As for the Gram-negative bacteria, E. coli (ATCC 10536, ATCC 25922), Klebsiella pneumonia (ATCC 10031), Proteus vulgaris (ATCC 13315), Pseudomonas aeruginosa (ATCC 9027), and Salmonella typhimurium (ATCC 13311) were used, and as for the Gram-positive bacteria, Staphylococcus aureus, MRSA (ATCC 33591), Staphylococcus epidermidis (ATCC 12228), Streptococcus pneumonia (ATCC 6301), Mycobacterium ranae (ATCC 110), and Enterococcus faecalis (VRE, ATCC 51575) were used. The various bacteria were cultured at 37° C. for 20 to 48 hours by conventional methods, and the minimum growth inhibitory concentration (MIC, μg/ml) was determined. Each of the specimens was dissolved in a 1% DMSO solution. Furthermore, amoxicillin, clarithromycin and gentamycin were used as control drugs of antibacterial substance.

[4] = test system: Escherichia coli (ATCC 25922); assay: Antibacterial test (MIC), Gram-negative bacteria; format: cell-based; settings: ATCC25922, read-out: MIC
Excerpt: as §1

[5] = test system: Salmonella typhimurium (ATCC 13311); assay: Antibacterial test (MIC), Gram-negative bacteria; format: cell-based; settings: Salmonella enterica, read-out: MIC
Excerpt: as §1

[6] = test system: Proteus vulgaris (ATCC 13315); assay: Antibacterial test (MIC), Gram-negative bacteria; format: cell-based; settings: ATCC13315, read-out: MIC
Excerpt: as §1

[7] = test system: Escherichia coli (ATCC 10536); assay: Antibacterial test (MIC), Gram-negative bacteria; format: cell-based; settings: ATCC10536, read-out: MIC
Excerpt: as §1

[8] = test system: Helicobacter pylori standard strains ATCC 43504, ATCC 43629, ATCC 43570 and clinically separated strains; assay: Anti-Helicobacter pylori activity (MIC), standard and clinically separated strains, Pharmacological Test Example 2; format: cell-based
Method: For the bacterium Helicobacter pylori, standard strains ATCC 43504, ATCC 43629 and ATCC 43570 were used to perform in vitro tests in Columbia agar medium. The bacteria were cultured at 37° C. and pH 7.0 for 3 days. On the 4th day, the minimum growth inhibitory concentration (MIC, μg/ml) was determined. Each of the specimens was dissolved in a 1% DMSO solution. Furthermore, amoxicillin and clarithromycin were used as control drugs of antibacterial substance. Further, the compound described in the article of Thomas C. Kuehler (J. Med.

[9] = test system: Enterococcus faecalis (VRE, ATCC 51575); assay: Antibacterial test (MIC), Gram-positive bacteria; format: cell-based
Excerpt: as §1

[10] = test system: Staphylococcus aureus, MRSA (ATCC 33591); assay: Antibacterial test (MIC), Gram-positive bacteria; format: cell-based; settings: read-out: MIC
Excerpt: as §1

[11] = test system: Streptococcus pneumonia (ATCC 6301); assay: Antibacterial test (MIC), Gram-positive bacteria; format: cell-based; settings: Streptococcus pneumoniae, ATCC6301
Excerpt: as §1

[12] = test system: Mycobacterium ranae (ATCC 110); assay: Antibacterial test (MIC), Gram-positive bacteria; format: cell-based; settings: ATCC110, read-out: MIC
Excerpt: as §1

[13] = test system: Staphylococcus epidermidis (ATCC 12228); assay: Antibacterial test (MIC), Gram-positive bacteria; format: cell-based; settings: ATCC12228, read-out: MIC
Excerpt: as §1

[14] = test system: Helicobacter pylori bacteria (ATCC 43504); assay: Antiulcer action and bacteria eradicating action in Helicobacter pylori-infected Mongolian gerbils; format: in vivo; settings: for Number of Bacteria (average) (log CFU): gastric mucosa; for responders at 10 mg/kg / responders at 30 mg/kg: Helicobacter pylori
Method: Mongolian gerbils were experimentally infected with Helicobacter pylori bacteria, and the antiulcer action and the Helicobacter pylori bacteria eradicating action of the compounds of the present invention were tested.
Male Mongolian gerbils (30 to 40 g), five animals in each group, were orally inoculated with Helicobacter pylori bacteria (ATCC 43504) at 1.6×10^7 CFU/0.5 ml/mouse, and bred for one week, and then drug was administered two times a day for two weeks. Thereafter, the […] were bred for three weeks, and then the rats were fasted for 18 hours and subjected to abdominal section, followed by autopsy. The severity of gastric ulcer, the number of Helicobacter pylori bacteria in the gastric mucosa, and the antibody titer were measured.

[15] = test system: gastric acid secretion; assay: Gastric acid secretion inhibiting action, pylorus ligation in rats; format: in vivo, SD rats; settings: 30 mg/kg to the duodenum, 4 hours after pylorus ligation, average
Method: The gastric acid secretion inhibiting action of the compounds of the present invention was tested. A group of five animals of male SD rats (about 200 g) were used, and the medicaments were respectively dissolved in 0.5% CMC and were all administered to the duodenum respectively at 30 mg/kg. The rats were fasted overnight from the day before the administration of the test substance to the point of administration, and pylorus ligation was performed.

[16] = ATCC43504, 72 h, ATCC 43504, 37° C., pH 7.0, 3 days, read-out: MIC
[17] = ATCC43504, Table 8 summary, strain not stated, read-out: Anti-HP activity (MIC: μg/mL)
[18] = Clinically separated strain PT1045482
[19] = Clinically separated strain PT1045483
[20] = Clinically separated strain PT1045484
[21] = 30 mg/kg, two times a day for two weeks
[22] = ATCC43504, 336 h, 30 mg/kg, two times a day for two weeks, read-out: Eradication rate (%)
[23] = ATCC43504, Table 8, amount of administration (mg) 30, read-out: HP eradication based on Mongolian gerbil infection model: Eradication rate (%)

Compound	MIC [1, 16]	MIC [1, 17]	MIC ([2]; AMO-insensitive strain NO. 1)	MIC ([2]; AMO-insensitive strain NO. 2)	MIC ([2]; AMO-insensitive strain NO. 3)	MIC ([2]; AMO-insensitive strain NO. 4)	MIC ([2]; CAM-resistant strain NO. 1)	MIC ([2]; CAM-resistant strain NO. 2)	MIC ([2]; CAM-resistant strain NO. 3)	MIC ([2]; CAM-resistant strain NO. 4)	MIC [3]	MIC [4]	MIC [5]	MIC [6]	MIC [7]	MIC [8, 18]	MIC [8, 19]	MIC [8, 20]	MIC ([8]; Standard strain ATCC 43504)	MIC ([8]; Standard strain ATCC 43570)	other results
CCCCCOc1ccnc(CSc2nc3ccccc3[nH]2)c1C [Example 1, 2-[(4-n-pentyloxy-3-methylpyridin-2-yl)-methylthio]-1H-benzimidazole]	0.1 µg/mL (≈ 0.293 µM)	0.1 µg/mL (≈ 0.293 µM)	0.06 µg/mL (≈ 0.176 µM)	0.06 µg/mL (≈ 0.176 µM)	0.06 µg/mL (≈ 0.176 µM)	0.06 µg/mL (≈ 0.176 µM)	0.06 µg/mL (≈ 0.176 µM)	0.06 µg/mL (≈ 0.176 µM)	0.06 µg/mL (≈ 0.176 µM)	0.06 µg/mL (≈ 0.176 µM)	> 100 µg/mL	> 100 µg/mL	> 100 µg/mL	> 100 µg/mL	> 100 µg/mL	0.1 µg/mL (≈ 0.293 µM)	0.06 µg/mL (≈ 0.176 µM)	0.06 µg/mL (≈ 0.176 µM)	0.1 µg/mL (≈ 0.293 µM)	< 0.015 µg/mL	MIC ([8]; Standard strain ATCC 43629): 0.06 µg/mL (≈ 0.176 µM); MIC [9]: > 100 µg/mL; MIC [10]: > 100 µg/mL; MIC [11]: > 100 µg/mL; MIC [12]: > 100 µg/mL; MIC [13]: > 100 µg/mL; Antibody titer (average) ([14]; 10 mg/kg): 0.07; Number of Bacteria (average) (log CFU) ([14]; 10 mg/kg): <3 log CFU; Number of Ulcers discovered ([14]; 10 mg/kg, two times a day for two weeks): inhibited generation of ulcer and 0/5; Antibody titer (average) ([14]; 30 mg/kg): 0.05; Number of Bacteria (average) (log CFU) ([14]; 30 mg/kg): <3 log CFU; Number of Ulcers discovered [14, 21]: 0/5; responders at 10 mg/kg ([14]; ATCC43504, 336 h, 10 mg/kg, two times a day for two weeks, read-out: Eradication rate (%)): 100%; responders at 30 mg/kg [14, 22]: 100%; responders at 10 mg/kg ([14]; ATCC43504, Table 8, amount of administration (mg) 10, read-out: HP eradication based on Mongolian gerbil infection model: Eradication rate (%)): 100%; Gastric acid secretion inhibiting action: Amount of gastric acid [15]: 57%; Gastric acid secretion inhibiting action: Amount of gastric acid secretion [15]: 82%; Gastric acid secretion inhibiting action: Total acidity [15]: 60%
CCCCCCOc1ccnc(CSc2nc3ccccc3[nH]2)c1C [Example 2, 2-[(4-n-hexyloxy-3-methylpyridin-2-yl)-methylthio]-1H-benzimidazole]	0.1 µg/mL (≈ 0.281 µM)	0.1 µg/mL (≈ 0.281 µM)	0.06 µg/mL (≈ 0.169 µM)	0.12 µg/mL (≈ 0.338 µM)	0.12 µg/mL (≈ 0.338 µM)	0.12 µg/mL (≈ 0.338 µM)	0.06 µg/mL (≈ 0.169 µM)	0.06 µg/mL (≈ 0.169 µM)	0.06 µg/mL (≈ 0.169 µM)	0.06 µg/mL (≈ 0.169 µM)	> 100 µg/mL	> 100 µg/mL	> 100 µg/mL	> 100 µg/mL	> 100 µg/mL	0.1 µg/mL (≈ 0.281 µM)	0.1 µg/mL (≈ 0.281 µM)	0.1 µg/mL (≈ 0.281 µM)	0.1 µg/mL (≈ 0.281 µM)	0.03 µg/mL (≈ 0.0844 µM)	MIC ([8]; Standard strain ATCC 43629): 0.1 µg/mL (≈ 0.281 µM); MIC [9]: > 100 µg/mL; MIC [10]: > 100 µg/mL; MIC [11]: > 100 µg/mL; MIC [12]: > 100 µg/mL; MIC [13]: > 100 µg/mL; Antibody titer (average) ([14]; 30 mg/kg): 0.17; Number of Bacteria (average) (log CFU) ([14]; 30 mg/kg): <3 log CFU; Number of Ulcers discovered [14, 21]: 0/5; responders at 30 mg/kg [14, 22]: 100%; responders at 30 mg/kg [14, 23]: 100%; Gastric acid secretion inhibiting action: Amount of gastric acid [15]: 44%; Gastric acid secretion inhibiting action: Amount of gastric acid secretion [15]: 65%; Gastric acid secretion inhibiting action: Total acidity [15]: 34%
CCCCCCCOc1ccnc(CSc2nc3ccccc3[nH]2)c1C [Example 3, 2-[(4-n-heptyloxy-3-methylpyridin-2-yl)-methylthio]-1H-benzimidazole]	0.1 µg/mL (≈ 0.271 µM)	0.1 µg/mL (≈ 0.271 µM)	0.12 µg/mL (≈ 0.325 µM)	0.12 µg/mL (≈ 0.325 µM)	0.12 µg/mL (≈ 0.325 µM)	0.25 µg/mL (≈ 0.677 µM)	0.1 µg/mL (≈ 0.271 µM)	0.1 µg/mL (≈ 0.271 µM)	0.1 µg/mL (≈ 0.271 µM)	0.1 µg/mL (≈ 0.271 µM)	> 100 µg/mL	> 100 µg/mL	> 100 µg/mL	> 100 µg/mL	> 100 µg/mL	0.1 µg/mL (≈ 0.271 µM)	0.1 µg/mL (≈ 0.271 µM)	0.1 µg/mL (≈ 0.271 µM)	0.1 µg/mL (≈ 0.271 µM)	0.1 µg/mL (≈ 0.271 µM)	MIC ([8]; Standard strain ATCC 43629): 0.1 µg/mL (≈ 0.271 µM); MIC [9]: > 100 µg/mL; MIC [10]: > 100 µg/mL; MIC [11]: > 100 µg/mL; MIC [12]: > 100 µg/mL; MIC [13]: > 100 µg/mL; Antibody titer (average) ([14]; 30 mg/kg): 0.22; Number of Bacteria (average) (log CFU) ([14]; 30 mg/kg): <3 log CFU; Number of Ulcers discovered [14, 21]: 0/5; responders at 30 mg/kg [14, 22]: 100%; responders at 30 mg/kg [14, 23]: 100%; Gastric acid secretion inhibiting action: Amount of gastric acid [15]: 44%; Gastric acid secretion inhibiting action: Amount of gastric acid secretion [15]: 70%; Gastric acid secretion inhibiting action: Total acidity [15]: 44%
